ChEMBL document CHEMBL4382242, “Novel racemosin B derivatives as new therapeutic agents for aggressive breast cancer” (Bioorg Med Chem, 2018)
pIC50: −log10 of the molar value.

Tested on: MCF7
Experiment: Growth inhibition of human MCF7 cells after 72 hrs by MTT assay
Type: functional, cell-based
Details: MCF7, 72 h

| pIC50 | Structure (SMILES) |
| --- | --- |
| 5.27 | CN1CCN(CCNC(=O)c2cc3c4ccccc4[nH]c3c3c2[nH]c2ccccc23)CC1 |

Tested on: MDA-MB-231
Experiment: Growth inhibition of human MDA-MB-231 cells after 72 hrs by MTT assay
Type: functional, cell-based
Details: MDA-MB-231, 72 h

| pIC50 | Structure (SMILES) |
| --- | --- |
| 5.68 | CN1CCN(CCNC(=O)c2cc3c4ccccc4[nH]c3c3c2[nH]c2ccccc23)CC1 |
